Values of other authors as cited in US20250115648A1 (priority 2013, published 2025).
Values joined by “and” are separate entries in the source; they are usually repeats but may differ in a detail not shown here. Equal values may be shown once.

Settings: cited from earlier work; for Peak Abs.: peak absorbance wavelength of exemplary fluorescent reporter molecule; for Peak Em.: peak emission wavelength of exemplary fluorescent reporter molecule

Compound | Peak Abs. | Peak Em.
CC(=O)Oc1cc2c(cc1Cl)C(c1ccccc1C(=O)O)c1cc(Cl)c(OC(C)=O)cc1O2 [H2DCFDA (H2-DCF, DCFR)] | 504 nanometers | 540 nanometers
CN1/C(=C/C=C/c2cc[n+](CCC[N+](C)(C)CCC[N+](C)(C)CCC[n+]3ccc(/C=C/C=C4/Sc5ccccc5N4C)cc3)cc2)Sc2ccccc21.[I-].[I-].[I-].[I-] [BOBO-3] | 570 nanometers and 571 nanometers | 602 nanometers and 606 nanometers
O=S(=O)([O-])c1cc(Nc2nc(Nc3ccccc3)nc(N(CCO)CCO)n2)ccc1/C=C/c1ccc(Nc2nc(Nc3ccccc3)nc(N(CCO)CCO)n2)cc1S(=O)(=O)[O-].[Na+].[Na+] [Phorwite AR] | 360 nanometers | 430 nanometers
CC1(C)C2=C(Cl)C(=O)C(Cl)=CC2=Nc2ccc(O)cc21 [DDAO] | 648 nanometers | 658 nanometers
CCCCCCCCCCCCCCCCCCN1/C(=C\C=C\c2oc3ccccc3[n+]2CCCCCCCCCCCCCCCCCC)Oc2ccccc21.[O-][Cl+3]([O-])([O-])[O-] [DiO] | 484 nanometers | 501 nanometers
O=S(=O)(O)c1cccc2cccc(Nc3ccccc3)c12 [1,8-ANS] | 372 nanometers | 480 nanometers
O=c1cc(CBr)c2cc3c4c(c2o1)CCCN4CCC3 [CellTracker Violet BMQC] | 415 nanometers | 516 nanometers
Nc1ccc([N+](=O)[O-])c2nonc12 [NBD Amine] | 450 nanometers | 530 nanometers
Carboxynaphthofluorescein | 600 nanometers | 674 nanometers
CC[N+]1=c2cc3c(cc2CCC1)=Nc1cc2c(cc1O3)N(CCCC(=O)O)C(C)(C)C=C2CS(=O)(=O)[O-] [ATTO 680] | 680 nanometers | 700 nanometers
CC[N+]1=c2cc3c(cc2C(CS(=O)(=O)O)=CC1(C)C)=Cc1cc2c(cc1C3(C)C)N(CCCC(=O)O)C(C)(C)CC2C.[O-][Cl+3]([O-])([O-])[O-] (stereo not drawn) [ATTO 647] | 644 nanometers | 670 nanometers
O=S(=O)(O)c1cc(Nc2nc(Nc3ccccc3)nc(N(CCO)CCO)n2)ccc1/C=C/c1ccc(Nc2nc(Nc3ccccc3)nc(N(CCO)CCO)n2)cc1S(=O)(=O)O [Calcofluor White] | 350 nanometers | 440 nanometers
ClCc1ccc(C2=c3cc4c5c(c3Oc3c2cc2c6c3CCCN6CCC2)CCC[N+]=5CCC4)cc1.[Cl-] [MitoTracker Red CMXRos] | 578 nanometers | 597 nanometers
O=C(O)c1cc2cc(F)c(O)c(F)c2oc1=O [Pacific Blue] | 405 nanometers and 410 nanometers | 455 nanometers
O=S(=O)([O-])c1cc(O)c2ccc3c(S(=O)(=O)[O-])cc(S(=O)(=O)[O-])c4ccc1c2c34.[Na+].[Na+].[Na+] [HPTS (Solvent Green 7)] | 455 nanometers | 510 nanometers
Cc1c(CC(=O)O)c(=O)oc2c(F)c(O)c(F)cc12 [Marina Blue] | 365 nanometers | 460 nanometers
CC1=CC(C)=[N+]2C1=Cc1c(C)cc(C)n1[B-]2(F)F [BODIPY 505/515] | 502 nanometers | 540 nanometers
Fluo-4 | 494 nanometers | 540 nanometers
CCCCCCCCCCCCc1cc2nc3ccc(O)cc3oc-2cc1=O [2-dodecylresorufm] | 582 nanometers | 595 nanometers
Nc1ccc2cc3ccc(N)cc3[n+](CCCC(=O)O)c2c1.[O-][Cl+3]([O-])([O-])[O-] [ATTO 465] | 453 nanometers | 507 nanometers
CCN1C(=CC=CC=CC=CC2=[N+](CCCCCC(=O)O)c3ccc(S(=O)(=O)O)cc3C2(C)C)C(C)(C)c2cc(S(=O)(=O)[O-])ccc21 [Cy7] | 745 nanometers | 766 nanometers
